Test results published in patent US8093383B2, “P70 S6 kinase inhibitors” (Eli Lilly and Company, priority 2007, dated 2012).
Structures can show the parent of a compound that is named as a salt. Where two headings read alike, the source gives them in different places. Marks after values point to notes of the source that are not given here. One block for each compound: values may come before it.

Key:
P70 S6 kinase (T412E) = molecular target: T1, P70 S6 kinase (T412E) (Homo sapiens, UniProt P23443, T412E); experiment: Inhibition of p70S6 Kinase; format: biochemical; conditions: 25 μM ATP, 5 nM enzyme, relative IC50
T1 construct: purchased Upstate USA, Inc. (Charlottesville, Va.)
T1 sequence (P23443 whole entry T412E): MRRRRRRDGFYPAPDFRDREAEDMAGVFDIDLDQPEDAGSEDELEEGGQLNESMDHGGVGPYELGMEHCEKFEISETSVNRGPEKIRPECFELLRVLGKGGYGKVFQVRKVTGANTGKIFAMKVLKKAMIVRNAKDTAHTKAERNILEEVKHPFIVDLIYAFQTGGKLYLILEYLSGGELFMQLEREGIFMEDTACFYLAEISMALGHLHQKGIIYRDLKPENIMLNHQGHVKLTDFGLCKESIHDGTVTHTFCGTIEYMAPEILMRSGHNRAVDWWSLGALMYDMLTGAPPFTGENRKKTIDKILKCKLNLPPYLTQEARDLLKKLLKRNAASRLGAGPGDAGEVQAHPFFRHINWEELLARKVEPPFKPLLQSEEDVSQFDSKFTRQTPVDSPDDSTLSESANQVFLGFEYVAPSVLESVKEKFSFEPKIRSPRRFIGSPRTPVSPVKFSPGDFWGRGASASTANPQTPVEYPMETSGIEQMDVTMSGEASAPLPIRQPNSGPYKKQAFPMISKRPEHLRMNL
Experimental: P70 S6 kinase (T412E) from Upstate USA, Inc. (Charlottesville, Va.) is preincubated with 10 concentrations of compound in a 15 μL volume for 30 min at room temperature in 96-well plates. PKA, PKC, MAPKAP-K1 Substrate from AnaSpec (San Jose, Calif.) and gamma ^33P-ATP from PerkinElmer (Waltham, Mass.) is added to initiate the reaction which is allowed to proceed for 60 minutes at room temperature in a final 25 μL volume under the following conditions: 10 mM HEPES pH 7.5, 10 mM MgCl2, 1.0 mM DTT, 0.082 mM EGTA, 0.005% TRITON X-100™, 25 μM, 25 μM ATP, 40 μCi/mL, 4 μM substrate, and 5 nM enzyme. Reactions are terminated with 75 μL 10% H3PO4 and 85 μL of quenched reaction mix is transferred to a phosphocellulose filter plate (Millipore #MAPHN0B50) and washed with 0.5% H3PO4 using a vacuum manifold. 100 μL of Microscint 20 (Packard #60113621) is added to each well and plates with liner are counted using a Wallac Beta Counter. Relative IC50 values are calculated by non-linear four parameter fitting.

p70 S6K = molecular target: T2, p70 S6K (Homo sapiens, UniProt P23443); experiment: Determination of p70 S6K In Vivo Target Inhibition (HCT 116); set-up: species or system athymic nude mice; conditions: HCT 116 xenograft, PO; potency based on plasma exposure; phosphorylation of S6RP serine 240/244
T2 construct: endogenous in cells; host or cells: HCT 116 human colon carcinoma xenograft tumours in athymic nude mice
T2 sequence (P23443 whole entry): as the sequence (P23443 whole entry T412E) above, with E412T counted along it
Experimental: HCT 116 human colon carcinoma cells* (5×10^6) are subcutaneously implanted into the flank of athymic nude mice in 0.2 mL of matrigel. Two weeks post-implantation, mice are dosed PO according to a time course, single dose/single time point, or dose response protocol for the determination of TMED50 (threshold minimum effective dose). Tumors are flash frozen at harvest and blood is collected for the determination of parent compound plasma exposure and the calculation of TMEC50 (threshold minimum effective concentration) in the case of dose response studies. Tumors or tissues are homogenized in XY Lysis buffer (10 μg/mL Leupeptin, 10 μg/mL Trypsin-Chymotrypsin Inhibitor, 10 μg/mL Tosyl phenylalanyl chloromethyl ketone (TPCK), 10 μg/mL Aprotinin, 60 mM Beta-Glycerol Phosphate, 1% Triton X100, 25 mM Tris pH 7.5, 2.5 mM Pyrophosphate, 150 mM NaCl, 2 mM p-tosyl-L-arginine methyl ester (TAME), 15 mM para-nitrophenyl phosphate (pNPP), 5 mM Benzamidine, 1 mM Na Vanadate, 10 mM NaF, 50 μg/mL phenylmethane sulofnyl fluoride (PMSF), 1 mM DTT, 15 mM EDTA pH 8.0, 5 mM EGTA pH 8.0, 1 μM Microcystin, 1 μM Okadaic Acid, and 1 Roche Complete protease inhibitor mini-tablet per 10 mL) using Lysing Matrix A tubes (MP Biomedicals, Solon, Ohio, cat# 6910-500) and a BIO101 Thermo Savant Fast Prep FP12. Lysates are aliquoted and either assayed immediately or stored at −80° C. for later testing. In Vivo Target Inhibition of p70 S6K is measured utilizing Meso Scale Discovery (Gaithersburg, Md.) ELISA technology to assess effects of the compound on phosphorylation of the serine 240/244 site of the downstream effector S6RP. Phosphorylation of p70 S6K(T389) and Akt(S473) is also assessed using this technology in a multiplex format. In summary, 20 μg of lysate is added to a carbon electrode 96-well plate pre-spotted with the appropriate capture antibodies. The protein of interest is probed using a ruthenium labeled detection antibody. Upon the passage of current over the electrode in the presence of read buffer containing the co-reactant TPA, electro-chemiluminescence results in the generation of light which is quantified and recorded using the MSD Sector 6000 instrument. For each study, percent inhibitions are calculated relative to the vehicle control group and ANOVA analysis is performed using the JMP software package for the determination of statistical significance. The following compounds were tested essentially as described above and have the following potencies based on plasma exposure.

[1] = test system: HUVEC / neo NHDF co-culture cord formation; experiment: Angiogenesis Cord Formation Assay; format: cell-based; conditions: Homo sapiens, 288 h
Experimental: Human neonatal dermal fibroblast cells (neo NHDF) are seeded into Parkard 96 well plate on the first day, and incubated in the 37° C. and 5% CO2 incubator. Human umbilical vein endothelial cells (HUVEC) are then plated on the top of neo NHDF cells. Starting the third day, the co-culture is treated with eight-dose series of the test compound (starting with 20 μM, 1:3 serial dilution) in the presence of 20 ng/mL vascular endothelial growth factor (VEGF). The compound and VEGF are replenished every two to three days. The assay is conducted over a 12 day period. Cells are fixed by cold 70% ethanol for 30 minutes on the 12th day and processed for anti human CD31 immunofluorescence. Cultures are incubated with mouse anti human CD31 antibody and then stained by goat anti mouse alexa 488 secondary antibody. Cells are also stained by Hoechst to visualize the nucleus. After the staining, the cord formation is captured and quantified using Cellomics Arrayscan® VTI high content image analysis platform adopting the tube formation BioApplication. Two parameters, the cord area and angiogenesis index, are used to calculate the relative potency of the test compound in this angiogenesis assay. The compounds of Examples 5 and 10 were tested and analyzed essentially as described above.

U87MG = experiment: Cell assay (Alamar Blue, 72 hours) U87MG; format: cell-based; conditions: Homo sapiens, U-87 MG
Experimental: (§1) Cells are maintained, then typsinized and suspended in Dulbecco's modified Eagle's medium (DMEM_containing 10% fetal bovine serum (FBS), 25 mM 4-(2-hydroxyethyl)-1-piperazineethanesulfonic acid (HEPES), 1.0 mM Sodium Pyruvate and 0.1 mM Non Essential Amino Acids (NEAA). 1×10^3 HCT116 and 2×10^3 Cells may be seeded in 50 μL in 96 well plates and incubated in 5% CO2 at 37° C. overnight. Compounds are prepared at desired starting concentrations and serial diluted in DMSO. 4 μL of diluted compounds are transferred in 1 mL 10% FBS DMEM to make up 2× concentrations as added 50 μL to the 50 μL in the presence of cells for dosing. The plates are incubated at 37° C. in 5% CO2 for 72 hours. At the end of incubation period, 10 μL Alamar Blue is added and after 2 hours reaction the measurement is determined in CytoFluor at 530 nm excitation, 580 nm emission and Gain 45. The following compounds were tested in the following cell lines essentially as described above.

A549 = experiment: Cell assay (Alamar Blue, 72 hours) A549; format: cell-based; conditions: Homo sapiens
Experimental: as §1

[2] = test system: HCT 116 human colon carcinoma cells; experiment: Determination of p70 S6K In Vivo Efficacy (HCT 116 xenograft tumor growth); set-up: species or system athymic nude mice
Experimental: HCT 116 human colon carcinoma cells (5×10^6) are subcutaneously implanted into the flank of athymic nude mice in 0.2 mL of matrigel. One week post-implantation, mice are dosed PO according to the pharmacokinetics and the pharmacodynamics of the molecule to maintain 30-50% or 60-90% pS6 Inhibition over a 24 hr period. Dosing is continued for at least 21 days. Tumor volumes are measured bi-weekly to evaluate drug related tumor growth reduction utilizing standard methods. At the end of the study, tumors are flash-frozen at harvest and blood is collected for the determination of parent compound plasma exposure. The compound of Example 5 was tested essentially as described above.

A2780 = experiment: Cell assay (Alamar Blue, 72 hours) A2780; format: cell-based; conditions: Homo sapiens
Experimental: as §1

NCI-H460 = experiment: Cell assay (Alamar Blue, 72 hours) NCI-H460; format: cell-based; conditions: Homo sapiens
Experimental: as §1

PANC-1 = experiment: Cell assay (Alamar Blue, 72 hours) PANC-1; format: cell-based; conditions: Homo sapiens
Experimental: as §1

Rat 13762 = experiment: Cell assay (Alamar Blue, 72 hours) Rat 13762; format: cell-based
Experimental: as §1

PC3 = experiment: Cell assay (Alamar Blue, 72 hours) PC3; format: cell-based; conditions: Homo sapiens, PC-3
Experimental: as §1

K562 = experiment: Cell assay (Alamar Blue, 72 hours) K562; format: cell-based; conditions: Homo sapiens
Experimental: as §1

Oral bioavailability = format: in vivo; conditions: rat, plasma; Sprague Dawley rats, 1 mg/kg (IV) or 10 mg/kg (oral gavage)
Experimental: The bioavailability of compounds of the present invention may be measured by methods known to the skilled artisan. For example a compound of Formula I is administered to Sprague Dawley rats at doses of 1 mg/kg (IV) or 10 mg/kg (oral gavage) in a conventional formulation. An oral formulation may include a suspension (0.25% PS80, 1% HEC, 0.05% Antifoam in water) using milled compound of Formula I. Plasma samples are obtained and concentrations of the compound of Formula I are measured. The compound of Example 57 was evaluated in a method substantially similar to that described above and found to have an oral bioavailability of >100%.

SMILES: Cl.FC(F)(F)c1cccc(-c2c[nH]c(C3CCN(c4ncnc5[nH]ncc45)CC3)n2)c1 [Example 5, 4-{4-[4-(3-(Trifluoromethyl)-phenyl)-1H-imidazol-2-yl]-piperidin-1-yl}-1H-pyrazolo[3,4-d]pyrimidine hydrochloride]
IC50 (P70 S6 kinase (T412E)): 0.0294 µM
IC50 ([1]; 20 ng/mL VEGF, 12 day, cord area and angiogenesis index, read-out: IC50): 2.92 µM
IC50 (U87MG): 14.6 µM
IC50 (A549): 22 µM
IC50 (p70 S6K): 7.3 µM
Tumor Volume ([2]; 30 mg/kg PO (BID × 21), Day 8, mean of 10 animals): 36.5 mm^3
Tumor Volume ([2]; 30 mg/kg PO (BID × 21), Day 13, mean of 10 animals): 58.7 mm^3
Tumor Volume ([2]; 30 mg/kg PO (BID × 21), Day 16, mean of 10 animals): 90.9 mm^3
Tumor Volume ([2]; 30 mg/kg PO (BID × 21), Day 20, mean of 10 animals): 134.6 mm^3
Tumor Volume ([2]; 30 mg/kg PO (BID × 21), Day 23, mean of 10 animals): 192.7 mm^3
Tumor Volume ([2]; 30 mg/kg PO (BID × 21), Day 27, mean of 10 animals): 296.3 mm^3
Tumor Volume ([2]; 60 mg/kg PO (BID × 21), Day 8, mean of 10 animals ± standard deviation): 28.8 ± 2.6^b mm^3
Tumor Volume ([2]; 60 mg/kg PO (BID × 21), Day 13, mean of 10 animals ± standard deviation): 42.1 ± 6.2*** mm^3
Tumor Volume ([2]; 60 mg/kg PO (BID × 21), Day 16, mean of 10 animals ± standard deviation): 72.1 ± 11.8*** mm^3
Tumor Volume ([2]; 60 mg/kg PO (BID × 21), Day 20, mean of 10 animals ± standard deviation): 139.0 ± 26.4*** mm^3
Tumor Volume ([2]; 60 mg/kg PO (BID × 21), Day 23, mean of 10 animals ± standard deviation): 188.4 ± 25.9*** mm^3
Tumor Volume ([2]; 60 mg/kg PO (BID × 21), Day 27, mean of 10 animals ± standard deviation): 280.0 ± 36.1*** mm^3
Tumor Volume ([2]; 60 mg/kg PO (QD × 21), Day 8, mean of 10 animals ± standard deviation): 30.6 ± 3.4^b mm^3
Tumor Volume ([2]; 60 mg/kg PO (QD × 21), Day 13, mean of 10 animals ± standard deviation): 57.8 ± 10.7** mm^3
Tumor Volume ([2]; 60 mg/kg PO (QD × 21), Day 16, mean of 10 animals ± standard deviation): 85.0 ± 13.3*** mm^3
Tumor Volume ([2]; 60 mg/kg PO (QD × 21), Day 20, mean of 10 animals ± standard deviation): 142.5 ± 18.4*** mm^3
Tumor Volume ([2]; 60 mg/kg PO (QD × 21), Day 23, mean of 10 animals ± standard deviation): 194.5 ± 25.7*** mm^3
Tumor Volume ([2]; 60 mg/kg PO (QD × 21), Day 27, mean of 10 animals ± standard deviation): 252.7 ± 34.4*** mm^3
melting point: 306 °C

SMILES: Cc1ccc(S(=O)(=O)O)cc1.Cn1cc(-c2ccc(F)c(C(F)(F)F)c2)nc1C1CCN(c2ncnc3[nH]ncc23)CC1 [Example 57, 4-{4-[4-(4-Fluoro-3-trifluoromethyl-phenyl)-1-methyl-1H-imidazol-2-yl]-piperidin-1-yl}-1H-pyrazolo[3,4-d]pyrimidine p-toluenesulfonate]
IC50 (P70 S6 kinase (T412E)): 0.0127 µM
IC50 (U87MG): 27.5 µM
IC50 (A549): 10.3 µM
IC50 (A2780): 25.1 µM
IC50 (NCI-H460): 24 µM
IC50 (PANC-1): 30.2 µM
IC50 (Rat 13762): 51.6 µM
IC50 (PC3): 31.9 µM
IC50 (K562): 16.5 µM
bioavailability (Oral bioavailability): > 100%

SMILES: Cn1cc(-c2ccc(F)c(C(F)(F)F)c2)nc1C1CCN(c2ncnc3[nH]ncc23)CC1 [Example 10, 4-{4-[4-(4-Fluoro-3-trifluoromethyl-phenyl)-1-methyl-1H-imidazol-2-yl]-piperidin-1-yl}-1H-pyrazolo[3,4-d]pyrimidine hydrochloride]
IC50 (P70 S6 kinase (T412E)): 0.00379 µM
IC50 [1]: 4.78 µM
IC50 (p70 S6K): 1.97 µM

Other lines, results leading:

IC50 (P70 S6 kinase (T412E)): 0.00758 µM
IC50 (p70 S6K): 47.7 µM
SMILES: Fc1ccc(-c2cnc(C3CCN(c4ncnc5[nH]cnc45)CC3)[nH]2)cc1C(F)(F)F [Example 8, 6-{4-[5-(4-Fluoro-3-trifluoromethyl-phenyl)-1H-imidazol-2-yl]-piperidin-1-yl}-9H-purine hydrochloride]

IC50 (P70 S6 kinase (T412E)): 0.0103 µM
IC50 (p70 S6K): 1.92 µM
SMILES: Fc1ccc(-c2c[nH]c(C3CCN(c4ncnc5[nH]ccc45)CC3)n2)cc1C(F)(F)F [Example 7, 4-{4-[4-(4-Fluoro-3-trifluoromethyl-phenyl)-1H-imidazol-2-yl]-piperidin-1-yl}-7H-pyrrolo[2,3-d]pyrimidine hydrochloride]
